Results on 18 molecules are retold here after US12281122B1, “PI3K inhibitors” (Cogent Biosciences, Inc., priority 2023, dated 2025).

pIC50: −log10 of the molar value.

Test [1] relates to T47D (PI3Kα-H1047R) cell line. Description: HTRF phospho-AKT(S473) cell assay in T47D cells. Type of test: cell-based, human. The method, boiled down:
(§1)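 T47D (PI3Kα-H1047R; RPMI, 10% FBS, insulin) and SKBR3 (wild-type PI3Kα; McCoy's 5A, 10% FBS) cells treated 2 h at 37 °C with 12-point 1:3 dilutions, top 5 μM and 10 μM respectively, ≤0.5% DMSO. SKBR3 stimulated with 70 ng/ml PDGF-BB for the last 15 min; lysate pAKT(S473) by HTRF, IC50 from curves.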

Test [2] relates to SKBR3 (PI3Kα-Wild Type) cell line. Description: HTRF phospho-AKT(S473) cell assay in SKBR3 cells. The test is classed as cell-based, human. An outline of the steps: as §1
A general note: In TR-FRET formats the signal depends on donor and acceptor labels being close together.

[3] abbreviates: Homo sapiens; T47D (PI3Kα-H1047R) cells, HTRF phospho-AKT(S473), 2 hours compound incubation.
[4] abbreviates: Homo sapiens, SK-BR-3; SKBR3 (PI3Kα-Wild Type) cells, HTRF phospho-AKT(S473), 2 hours compound incubation, PDGF-BB stimulated.
The mark [5] stands for this setting: Homo sapiens; HTRF phospho-AKT(S473), T47D (PI3Kα-H1047R) cells, 2 hours compound incubation.
The mark [6] stands for this setting: Homo sapiens, SK-BR-3; HTRF phospho-AKT(S473), SKBR3 (PI3Kα-Wild Type) cells, 2 hours compound incubation, PDGF-BB stimulated.

In the case of `Cc1cc([C@@H](C)Nc2ccc(Cl)nc2C(=O)NS(C)(=O)=O)c2nc(N3CCN(c4cnn(CC(F)(F)F)c4)CC3)n(C)c(=O)c2c1` [Compound 193, (R)-6-chloro-3-((1-(3,6-dimethyl-4-oxo-2-(4-(1-(2,2,2-trifluoroethyl)-1H-pyrazol-4-yl)piperazin-1-yl)-3,4-dihydroquinazolin-8-yl)ethyl)amino)-N-(methylsulfonyl) picolinamide], the negative logarithm of the IC50 (pIC50) was over 6.60 in test [1] (setting [3]) and 5.30 to 6.00 in test [2] (setting [4]).

Consider `C[C@@H](Nc1ccc(Cl)nc1C(=O)NS(C)(=O)=O)c1cc(F)cc2c(=O)n(C)c(-c3ccc4nn(C)cc4c3)nc12` [Compound 805, (R)-6-chloro-3-((1-(6-fluoro-3-methyl-2-(2-methyl-2H-indazol-5-yl)-4-oxo-3,4-dihydroquinazolin-8-yl)ethyl)amino)-N-(methylsulfonyl) picolinamide], for which the pIC50 is 6.30 to 6.60 in test [1] (setting [5]) and 5.30 to 6.00 in test [2] (setting [6]).

Consider `Cc1cc([C@@H](C)Nc2ccc(Cl)nc2C(=O)NS(C)(=O)=O)c2nc(N3C[C@@H]4[C@H](C3)[C@H]4c3ccc(C#N)nc3)n(C)c(=O)c2c1` [Compound 402, 6-chloro-3-(((R)-1-(2-((1R,5S,6S)-6-(6-cyanopyridin-3-yl)-3-azabicyclo[3.1.0]hexan-3-yl)-3,6-dimethyl-4-oxo-3,4-dihydroquinazolin-8-yl)ethyl)amino)-N-(methylsulfonyl) picolinamide], for which the pIC50 in test [1] (setting [3]) is over 6.60; in test [2] (setting [4]), 5.30 to 6.00.

Regarding `Cc1cc([C@@H](C)Nc2ccc(Cl)nc2C(=O)NS(C)(=O)=O)c2nc(N3C[C@@H]4[C@H](C3)[C@H]4c3ncn(C(C)C)n3)n(C)c(=O)c2c1` [Compound 551, 6-chloro-3-(((R)-1-(2-((1R,5S,6R)-6-(1-isopropyl-1H-1,2,4-triazol-3-yl)-3-azabicyclo[3.1.0]hexan-3-yl)-3,6-dimethyl-4-oxo-3,4-dihydroquinazolin-8-yl)ethyl)amino)-N-(methylsulfonyl) picolinamide], the pIC50 is over 6.60 in test [1] (setting [5]) and at most 5.30 in test [2] (setting [6]).

As to `Cc1cc([C@@H](C)Nc2ccc(Cl)nc2C(=O)NS(C)(=O)=O)c2nc(N3CCC[C@H](c4c[nH]nc4C)C3)n(C)c(=O)c2c1` (relative stereo) [Compound 703, 6-chloro-3-(((R)-1-(3,6-dimethyl-2-((R*)-3-(3-methyl-1H-pyrazol-4-yl)piperidin-1-yl)-4-oxo-3,4-dihydroquinazolin-8-yl)ethyl)amino)-N-(methylsulfonyl) picolinamide], the pIC50 was 6.30 to 6.60 in test [1] (setting [5]) and at most 5.30 in test [2] (setting [6]).

As for `Cc1cc([C@@H](C)Nc2ccc(Cl)nc2C(=O)NS(C)(=O)=O)c2nc(N3C[C@@H]4[C@H](C3)[C@H]4c3nn(C)cc3C)n(C)c(=O)c2c1` [Compound 415, 6-chloro-3-(((R)-1-(2-((1R,5S,6R)-6-(1,4-dimethyl-1H-pyrazol-3-yl)-3-azabicyclo[3.1.0]hexan-3-yl)-3,6-dimethyl-4-oxo-3,4-dihydroquinazolin-8-yl)ethyl)amino)-N-(methylsulfonyl) picolinamide], the pIC50 in test [1] (setting [3]) is over 6.60; in test [2] (setting [4]), 5.30 to 6.00.

As for `Cc1cc([C@@H](C)Nc2ccc(Cl)nc2C(=O)NS(C)(=O)=O)c2nc(N3C[C@@H]4[C@H](C3)[C@H]4c3nnn(C)c3C)n(C)c(=O)c2c1` [Compound 498, 6-chloro-3-(((R)-1-(2-((1R,5S,6R)-6-(1,5-dimethyl-1H-1,2,3-triazol-4-yl)-3-azabicyclo[3.1.0]hexan-3-yl)-3,6-dimethyl-4-oxo-3,4-dihydroquinazolin-8-yl)ethyl)amino)-N-(methylsulfonyl) picolinamide], the pIC50 in test [1] (setting [5]) was over 6.60; in test [2] (setting [6]) it was 5.30 to 6.00.

Take `Cc1cc([C@@H](C)Nc2ccc(Cl)nc2C(=O)NS(C)(=O)=O)c2nc(N3CCn4nccc4C3)n(C)c(=O)c2c1` [Compound 765, (R)-6-chloro-3-((1-(2-(6,7-dihydropyrazolo[1,5-a]pyrazin-5(4H)-yl)-3,6-dimethyl-4-oxo-3,4-dihydroquinazolin-8-yl)ethyl)amino)-N-(methylsulfonyl) picolinamide]: the pIC50 in test [1] (setting [5]) was 6.30 to 6.60; in test [2] (setting [6]), 5.30 to 6.00.

As for `Cc1cc([C@@H](C)Nc2ccc(Cl)nc2C(=O)NS(C)(=O)=O)c2nc(N3C[C@@H]4[C@H](C3)[C@H]4c3cc4ncccn4n3)n(C)c(=O)c2c1` [Compound 508, 6-chloro-3-(((R)-1-(3,6-dimethyl-4-oxo-2-((1R,5S,6R)-6-(pyrazolo[1,5-a]pyrimidin-2-yl)-3-azabicyclo[3.1.0]hexan-3-yl)-3,4-dihydroquinazolin-8-yl)ethyl)amino)-N-(methylsulfonyl) picolinamide], the pIC50 is over 6.60 in test [1] (setting [5]) and 5.30 to 6.00 in test [2] (setting [6]).

For the molecule `Cc1cc([C@@H](C)Nc2ccc(Cl)nc2C(=O)NS(C)(=O)=O)c2nc(N3CCC(c4cnccn4)CC3)n(C)c(=O)c2c1` [Compound 398, (R)-6-chloro-3-((1-(3,6-dimethyl-4-oxo-2-(4-(pyrazin-2-yl)piperidin-1-yl)-3,4-dihydroquinazolin-8-yl)ethyl)amino)-N-(methylsulfonyl) picolinamide], the pIC50 in test [1] (setting [3]) was 6.30 to 6.60; in test [2] (setting [4]), at most 5.30.

`Cc1cc([C@@H](C)Nc2ccc(Cl)nc2C(=O)NS(C)(=O)=O)c2nc(N3CCN(c4ccccc4)CC3)n(C)c(=O)c2c1` [Compound 183, (R)-6-chloro-3-((1-(3,6-dimethyl-4-oxo-2-(4-phenylpiperazin-1-yl)-3,4-dihydroquinazolin-8-yl)ethyl)amino)-N-(methylsulfonyl) picolinamide]: the pIC50 was over 6.60 in test [1] (setting [3]) and 5.30 to 6.00 in test [2] (setting [4]).

In the case of `Cc1cc([C@@H](C)Nc2ccc(Cl)nc2C(=O)NS(C)(=O)=O)c2nc(N3C[C@H]4CC(c5ccn(C)n5)C[C@@H]4C3)n(C)c(=O)c2c1` (single isomer, unassigned) [Compound 425, 6-chloro-3-(((R)-1-(3,6-dimethyl-2-((3aS*,6aS*)-5-(1-methyl-1H-pyrazol-3-yl)hexahydrocyclopenta [c]pyrrol-2(1H)-yl)-4-oxo-3,4-dihydroquinazolin-8-yl)ethyl)amino)-N-(methylsulfonyl) picolinamide], the pIC50 in test [1] (setting [3]) is over 6.60; in test [2] (setting [4]), at most 5.30.

`Cc1cc([C@@H](C)Nc2ccc(Cl)nc2C(=O)NS(C)(=O)=O)c2nc(N3CCC[C@@H](c4cnc(C)nc4)C3)n(C)c(=O)c2c1` (relative stereo) [Compound 645, 6-chloro-3-(((R)-1-(3,6-dimethyl-2-((R*)-3-(2-methylpyrimidin-5-yl)piperidin-1-yl)-4-oxo-3,4-dihydroquinazolin-8-yl)ethyl)amino)-N-(methylsulfonyl) picolinamide]: the pIC50 in test [1] (setting [5]) is 6.00 to 6.30; in test [2] (setting [6]), at most 5.30.

`CC(=O)N1CCC(c2ccc(-c3nc4c([C@@H](C)Nc5ccc(Cl)nc5C(=O)NS(C)(=O)=O)cc(C)cc4c(=O)n3C)cc2)CC1` [Compound 782, (R)-3-((1-(2-(4-(1-acetylpiperidin-4-yl)phenyl)-3,6-dimethyl-4-oxo-3,4-dihydroquinazolin-8-yl)ethyl)amino)-6-chloro-N-(methylsulfonyl) picolinamide]: the values for the pIC50 in test [1] (setting [5]) and in test [2] (setting [6]) were over 6.60 and 5.30 to 6.00, respectively.

Consider `Cc1cc([C@@H](C)Nc2ccc(Cl)nc2C(=O)NS(C)(=O)=O)c2nc(N3C[C@@H]4[C@H](C3)[C@H]4c3ccnn3C(F)F)n(C)c(=O)c2c1` [Compound 471, 6-chloro-3-(((R)-1-(2-((1R,5S,6R)-6-(1-(difluoromethyl)-1H-pyrazol-5-yl)-3-azabicyclo[3.1.0]hexan-3-yl)-3,6-dimethyl-4-oxo-3,4-dihydroquinazolin-8-yl)ethyl)amino)-N-(methylsulfonyl) picolinamide], for which the negative logarithm of the IC50 (pIC50) in test [1] (setting [5]) is over 6.60; in test [2] (setting [6]), 5.30 to 6.00.

Regarding `Cc1cc([C@@H](C)Nc2ccc(Cl)nc2C(=O)NS(C)(=O)=O)c2nc(N3CCC[C@@H](c4cnc(C)c(C#N)c4)C3)n(C)c(=O)c2c1` (relative stereo) [Compound 614, 6-chloro-3-(((R)-1-(2-((R*)-3-(5-cyano-6-methylpyridin-3-yl)piperidin-1-yl)-3,6-dimethyl-4-oxo-3,4-dihydroquinazolin-8-yl)ethyl)amino)-N-(methylsulfonyl) picolinamide], the values for the pIC50 in test [1] (setting [5]) and in test [2] (setting [6]) were 6.00 to 6.30 and at most 5.30, respectively.

In the case of `Cc1cc([C@@H](C)Nc2ccc(Cl)nc2C(=O)NS(C)(=O)=O)c2nc(N3CCC(c4ncc(F)cn4)CC3)n(C)c(=O)c2c1` [Compound 486, (R)-6-chloro-3-((1-(2-(4-(5-fluoropyrimidin-2-yl)piperidin-1-yl)-3,6-dimethyl-4-oxo-3,4-dihydroquinazolin-8-yl)ethyl)amino)-N-(methylsulfonyl) picolinamide], the pIC50 was over 6.60 in test [1] (setting [5]) and 5.30 to 6.00 in test [2] (setting [6]).

In the case of `Cc1cc([C@@H](C)Nc2ccc(Cl)nc2C(=O)NS(C)(=O)=O)c2nc(N3CCc4c(cnn4C4COC4)C3)n(C)c(=O)c2c1` [Compound 335, (R)-6-chloro-3-((1-(3,6-dimethyl-2-(1-(oxetan-3-yl)-1,4,6,7-tetrahydro-5H-pyrazolo[4,3-c]pyridin-5-yl)-4-oxo-3,4-dihydroquinazolin-8-yl)ethyl)amino)-N-(methylsulfonyl) picolinamide], the figures for the pIC50 in test [1] (setting [3]) and in test [2] (setting [4]) were over 6.60 and 5.30 to 6.00, respectively.

Broadly, the pIC50 is −log10 of the IC50, conventionally taken in molar units. A low value points to a high IC50.
